According to patent US20240150356A1, “Pyrimidine amide compounds and use thereof” (ALPHALA CO., LTD., priority 2019, published 2024):

These compounds were tested on Hep3B cells (hepatocellular carcinoma cell line) (assay: In vitro MTS cell viability assay (NCI-60 methodology), Hep3B). Details: Homo sapiens, 48 h, Table 1, MTS, 2 days drug incubation, 50% reduction vs time zero, read-out: Hep3B LC50.
Assay type: cell-based
In short: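 Hep3B cells given five 2-fold dilutions of compound for 2 days, with viability by MTS measured at time zero and at end. LC50 is the concentration giving a 50% fall in viable cells relative to the start of treatment, per NCI-60 formula.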

SMILES | LC50
CCC(C)(C)c1ccc(-c2nc(NC(=O)c3ccc([N+](=O)[O-])s3)c3cnn(C)c3n2)cc1 [Compound 1-9, N-(1-methyl-6-(4-(tert-pentyl)phenyl)-1H-pyrazolo[3,4-d]pyrimidin-4-yl)-5-nitrothiophene-2-carboxamide] | 1500 nM

Same assay, conditions: Homo sapiens, 48 h, Table 4, MTS, 2 days drug incubation, 50% reduction vs time zero, read-out: Hep3B LC50

SMILES | LC50
Cc1csc2c(NC(=O)c3ccc([N+](=O)[O-])s3)nc(-c3cc(C(F)(F)F)cc(C(F)(F)F)c3)nc12 [Compound 4-6, N-(2-(3,5-bis(trifluoromethyl)phenyl)-7-methylthieno[3,2-d]pyrimidin-4-yl)-5-nitrothiophene-2-carboxamide] | 420 nM

Same assay, conditions: Homo sapiens, 48 h, Table 5, MTS, 2 days drug incubation, 50% reduction vs time zero, read-out: Hep3B LC50

SMILES | LC50
O=C(Nc1nc(-c2ccco2)nc2c1cnn2-c1ccccc1)c1ccc([N+](=O)[O-])s1 [Compound 5-17, N-(6-(furan-2-yl)-1-phenyl-1H-pyrazolo[3,4-d]pyrimidin-4-yl)-5-nitrothiophene-2-carboxamide] | 400 nM
O=C(Nc1nc(-c2cncnc2)nc2c1cnn2-c1ccccc1)c1ccc([N+](=O)[O-])s1 [Compound 5-24, 5-nitro-N-(1-phenyl-6-(pyrimidin-5-yl)-1H-pyrazolo[3,4-d]pyrimidin-4-yl)thiophene-2-carboxamide] | 960 nM
O=C(Nc1nc(Sc2ccc(Cl)cc2)nc2c1cnn2-c1ccccc1)c1ccc([N+](=O)[O-])s1 [Compound 5-16] | 360 nM
O=C(Nc1nc(-c2cc(C(F)(F)F)ccc2F)nc2c1cnn2-c1ccccc1)c1ccc([N+](=O)[O-])s1 [Compound 5-50, N-(6-(2-fluoro-5-(trifluoromethyl)phenyl)-1-phenyl-1H-pyrazolo[3,4-d]pyrimidin-4-yl)-5-nitrothiophene-2-carboxamide] | 350 nM

Same assay, conditions: Homo sapiens, 48 h, Table 6, MTS, 2 days drug incubation, 50% reduction vs time zero, read-out: Hep3B LC50

SMILES | LC50
COCCOc1ccc(-c2nc(NC(=O)c3ccc([N+](=O)[O-])s3)c3cnn(-c4cccc(Cl)c4)c3n2)cn1 [Compound 6-43, N-(1-(3-chlorophenyl)-6-(6-(2-methoxyethoxy)pyridin-3-yl)-1H-pyrazolo[3,4-d]pyrimidin-4-yl)-5-nitrothiophene-2-carboxamide] | 90 nM
O=C(Nc1nc(N2CCC(F)(F)C2)nc2c1cnn2-c1ccc(F)cc1)c1ccc([N+](=O)[O-])s1 [Compound 6-97, N-(6-(3,3-difluoropyrrolidin-1-yl)-1-(4-fluorophenyl)-1H-pyrazolo[3,4-d]pyrimidin-4-yl)-5-nitrothiophene-2-carboxamide] | 570 nM
O=C(Nc1nc(-c2ccc(Cl)cc2)nc2c1cnn2-c1cccc(Cl)c1)c1ccc([N+](=O)[O-])s1 [Compound 6-38, N-(1-(3-chlorophenyl)-6-(4-chlorophenyl)-1H-pyrazolo[3,4-d]pyrimidin-4-yl)-5-nitrothiophene-2-carboxamide] | 380 nM
Cc1ccc(-n2ncc3c(NC(=O)c4ccc([N+](=O)[O-])s4)nc(-c4ccc(C(F)(F)F)cc4)nc32)cc1 [Compound 6-8, 5-nitro-N-(1-(p-tolyl)-6-(4-(trifluoromethyl)phenyl)-1H-pyrazolo[3,4-d]pyrimidin-4-yl)thiophene-2-carboxamide] | 350 nM
O=C(Nc1nc(-c2cccc(OC(F)(F)F)c2)nc2c1cnn2-c1cccc(Cl)c1)c1ccc([N+](=O)[O-])s1 [Compound 6-40, N-(1-(3-chlorophenyl)-6-(3-(trifluoromethoxy)phenyl)-1H-pyrazolo[3,4-d]pyrimidin-4-yl)-5-nitrothiophene-2-carboxamide] | 480 nM
COc1ccc(-n2ncc3c(NC(=O)c4ccc([N+](=O)[O-])s4)nc(C4CCC(C)(C)CC4)nc32)cc1 [Compound 6-30, N-(6-(4,4-dimethylcyclohexyl)-1-(4-methoxyphenyl)-1H-pyrazolo[3,4-d]pyrimidin-4-yl)-5-nitrothiophene-2-carboxamide] | 1320 nM
CCOCCOc1ccc(-c2nc(NC(=O)c3ccc([N+](=O)[O-])s3)c3cnn(-c4ccc(C)cc4)c3n2)cn1 [Compound 6-13, N-(6-(6-(2-ethoxyethoxy)pyridin-3-yl)-1-(p-tolyl)-1H-pyrazolo[3,4-d]pyrimidin-4-yl)-5-nitrothiophene-2-carboxamide] | 510 nM
CCOCCOCCOc1cc(C)c(-c2nc(NC(=O)c3ccc([N+](=O)[O-])s3)c3cnn(-c4ccc(F)cc4)c3n2)cn1 [Compound 6-139, N-(6-(6-(2-(2-ethoxyethoxy)ethoxy)-4-methylpyridin-3-yl)-1-(4-fluorophenyl)-1H-pyrazolo[3,4-d]pyrimidin-4-yl)-5-nitrothiophene-2-carboxamide] | 210 nM
O=C(Nc1nc(-c2ccc3c(c2)OCO3)nc2c1cnn2-c1ccc(F)cc1)c1ccc([N+](=O)[O-])s1 [Compound 6-124, N-(6-(benzo[d][1,3]dioxol-5-yl)-1-(4-fluorophenyl)-1H-pyrazolo[3,4-d]pyrimidin-4-yl)-5-nitrothiophene-2-carboxamide] | 550 nM
CCOCCOc1ccc(-c2nc(NC(=O)c3ccc([N+](=O)[O-])s3)c3cnn(-c4ccc(F)cc4)c3n2)cn1 [Compound 6-136, N-(6-(6-(2-ethoxyethoxy)pyridin-3-yl)-1-(4-fluorophenyl)-1H-pyrazolo[3,4-d]pyrimidin-4-yl)-5-nitrothiophene-2-carboxamide] | 260 nM
CC1(C)CCC(c2nc(NC(=O)c3ccc([N+](=O)[O-])s3)c3cnn(-c4ccc(F)cc4)c3n2)CC1 [Compound 6-145, N-(6-(4,4-dimethylcyclohexyl)-1-(4-fluorophenyl)-1H-pyrazolo[3,4-d]pyrimidin-4-yl)-5-nitrothiophene-2-carboxamide] | 890 nM
CC1CC=C(c2nc(NC(=O)c3ccc([N+](=O)[O-])s3)c3cnn(-c4ccc(F)cc4)c3n2)CC1 (stereo not drawn) [Compound 6-142] | 740 nM
COCCOc1ccc(-c2nc(NC(=O)c3ccc([N+](=O)[O-])s3)c3cnn(-c4ccc(OC)cc4)c3n2)cn1 [Compound 6-26, N-(6-(6-(2-methoxyethoxy)pyridin-3-yl)-1-(4-methoxyphenyl)-1H-pyrazolo[3,4,d]pyrimidin-4-yl)-5-nitrothiophene-2-carboxamide] | 220 nM
CCC(C)(C)c1ccc(-c2nc(NC(=O)c3ccc([N+](=O)[O-])s3)c3cnn(-c4ccc(OC(F)(F)F)cc4)c3n2)cc1 [Compound 6-87] | > 2000 nM

Same assay, conditions: Homo sapiens, 48 h, Table 8, MTS, 2 days drug incubation, 50% reduction vs time zero, read-out: Hep3B LC50

SMILES | LC50
C=CC(=O)N1CC[C@H](n2ncc3c(NC(=O)c4ccc([N+](=O)[O-])s4)nc(-c4ccc(F)nc4)nc32)C1 [Compound 8-3, (S)—N-(1-(1-acryloylpyrrolidin-3-yl)-6-(6-fluoropyridin-3-yl)-1H-pyrazolo[3,4-d]pyrimidin-4-yl)-5-nitrothiophene-2-carboxamide] | > 3000 nM

Same assay, conditions: Homo sapiens, 48 h, Table 9, MTS, 2 days drug incubation, 50% reduction vs time zero, read-out: Hep3B LC50

SMILES | LC50
O=C(Nc1nc(-c2ccc(Cl)cc2)nc2c1cnn2C1CCN(C(=O)OCCCC(F)(F)F)CC1)c1ccc([N+](=O)[O-])s1 [Compound 9-9] | 1070 nM
C=CC(=O)N1CCC(n2ncc3c(NC(=O)c4ccc([N+](=O)[O-])s4)nc(-c4ccc(F)nc4)nc32)CC1 [Compound 9-6] | 1250 nM

Same assay, conditions: Homo sapiens, 48 h, Table 10, MTS, 2 days drug incubation, 50% reduction vs time zero, read-out: Hep3B LC50

SMILES | LC50
O=C(Nc1nc(-c2ccc3c(c2)OCCO3)nc2c1cnn2C1CCCCC1)c1ccc([N+](=O)[O-])s1 [Compound 10-37, N-(1-cyclohexyl-6-(2,3-dihydrobenzo[b][1.4]dioxin-6-yl)-1H-pyrazolo[3,4-d]pyrimidin-4-yl)-5-nitrothiophene-2-carboxamide] | 1940 nM
COc1cncc(-c2nc(NC(=O)c3ccc([N+](=O)[O-])s3)c3cnn(C4CCCCC4)c3n2)c1 [Compound 10-22] | 1160 nM
O=C(Nc1nc(-c2cc(F)cc(F)c2)nc2c1cnn2C1CCCCC1)c1ccc([N+](=O)[O-])s1 [Compound 10-41] | 790 nM
COc1ccc(-c2nc(NC(=O)c3ccc([N+](=O)[O-])s3)c3cnn(C4CCCCC4)c3n2)cc1OC [Compound 10-48, N-(1-cyclohexyl-6-(3,4-dimethoxyphenyl)-1H-pyrazolo[3,4-d]pyrimidin-4-yl)-5-nitrothiophene-2-carboxamide] | 970 nM
N#Cc1ccc(-c2nc(NC(=O)c3ccc([N+](=O)[O-])s3)c3cnn(C4CCCCC4)c3n2)cc1 [Compound 10-20, N-(6-(4-cyanophenyl)-1-cyclohexyl-1H-pyrazolo[3,4-d]pyrimidin-4-yl)-5-nitrothiophene-2-carboxamide] | 1200 nM
Cc1noc(C)c1-c1nc(NC(=O)c2ccc([N+](=O)[O-])s2)c2cnn(C3CCCCC3)c2n1 [Compound 10-9, N-(1-cyclohexyl-4-(3,5-dimethylisoxazol-4-yl)-1H-pyrazolo[3,4,d]pyrimidin-4-yl)-5-nitrothiophene-2-carboxamide] | 1070 nM
O=C(Nc1nc(-c2cccs2)nc2c1cnn2C1CCCCC1)c1ccc([N+](=O)[O-])s1 [Compound 10-5, N-(1-cyclohexyl-6-(thiophen-2-yl)-1H-pyrazolo[3,4-d]pyrimidin-4-yl)-5-nitrothiophene-2-carboxamide] | 750 nM
CC1(C)CCC(n2ncc3c(NC(=O)c4ccc([N+](=O)[O-])s4)nc(-c4ccc5c(c4)OCO5)nc32)CC1 [Compound 10-66, N-(6-(benzo[d][1,3]dioxol-5-yl)-1-(4,4-dimethylcyclohexyl)-1H-pyrazolo[3,4-d]pyrimidin-4-yl)-5-nitrothiophene-2-carboxamide] | 610 nM
O=C(Nc1nc(-c2ccc(Cl)s2)nc2c1cnn2C1CCCCC1)c1ccc([N+](=O)[O-])s1 [Compound 10-8, N-(6-(5-chlorothiophen-2-yl)-1-cyclohexyl-1H-pyrazolo[3,4-d]pyrimidin-4-yl)-5-nitrothiophene-2-carboxamide] | 490 nM
CCCOc1ccc(-c2nc(NC(=O)c3ccc([N+](=O)[O-])s3)c3cnn(C4CCC(F)(F)CC4)c3n2)cc1 [Compound 10-60, N-(1-(4,4-difluorocyclohexyl)-6-(4-propoxyphenyl)-1H-pyrazolo[3,4-d]pyrimidin-4-yl)-5-nitrothiophene-2-carboxamide] | 830 nM
